From ChEMBL document CHEMBL1201862, “PubChem BioAssay data set” (2004)
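Five compound concentrations were applied to cells in 96-well plates for 48 hours; endpoints were derived by simple linear interpolation of the resulting dose-response curve. Here, GI50 denotes the concentration required for 50% inhibition of growth.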 Calls of active or inactive are those of the source. Cut-off read from the data, not from the text of the source: active = GI50 up to about 1.1 µM and inactive = higher.

Tests used:
Experiment in all cases: NCI-60 cell line screen, 48 h
[1] = tested on: Malme-3M
[2] = tested on: CAKI-1
[3] = tested on: SK-MEL-5
[4] = tested on: MDA-N
[5] = tested on: Hs-578T
[6] = tested on: SR
[7] = tested on: SW-620
[8] = tested on: A498
[9] = tested on: M14
[10] = tested on: UACC-257
[11] = tested on: SF-268
[12] = tested on: A549
[13] = tested on: HT-29
[14] = tested on: HCT-15
[15] = tested on: NCI-H226
[16] = tested on: U-251
[17] = tested on: MDA-MB-231
[18] = tested on: NCI-H23
[19] = tested on: NCI-H522
[20] = tested on: EKVX
[21] = tested on: LOX IMVI
[22] = tested on: MDA-MB-435
[23] = tested on: NCI-H460
[24] = tested on: KM12
[25] = tested on: SNB-75
[26] = tested on: HOP-92
[27] = tested on: MCF7
[28] = tested on: COLO 205
[29] = tested on: SF-539
[30] = tested on: HL-60
[31] = tested on: RXF 393
[32] = tested on: SN12C
[33] = tested on: OVCAR-3
[34] = tested on: SK-MEL-28
[35] = tested on: OVCAR-8
[36] = tested on: T47D
[37] = tested on: OVCAR-4
[38] = tested on: HOP-62
[39] = tested on: SF-295
[40] = tested on: UO-31
[41] = tested on: BT-549
[42] = tested on: SNB-19
[43] = tested on: NCI/ADR-RES
[44] = tested on: IGROV-1
[45] = tested on: 786-0
[46] = tested on: OVCAR-5
[47] = tested on: K562
[48] = tested on: HCC 2998
[49] = tested on: DU-145
[50] = tested on: PC-3
[51] = tested on: TK-10
[52] = tested on: ACHN
[53] = tested on: HCT-116
[54] = tested on: RPMI-8226
[55] = tested on: MOLT-4

With `CO[C@@H]1C[C@H]2[C@@H]3CC[C@H]([C@H](C)CO)[C@@]3(C)CC[C@@H]2[C@@]2(C)CC[C@H]3C[C@]312` the GI50 [1] was > 100 µM (inactive), the GI50 [2] was 5.08 µM (inactive) and the GI50 [3] was 30.4 µM (inactive). The GI50 [4] was 39.8 µM (inactive), the GI50 [5] was 43.4 µM (inactive) and the GI50 [6] was 37.5 µM (inactive). The GI50 [7] was 70.3 µM (inactive), the GI50 [8] was 80.4 µM (inactive) and the GI50 [9] was 32.4 µM (inactive). The GI50 [10] was 35.6 µM (inactive), the GI50 [11] was 35.7 µM (inactive) and the GI50 [12] was 69 µM (inactive). For the same molecule, the GI50 [13] was 20.7 µM (inactive), the GI50 [14] was 34 µM and the GI50 [15] was 28.1 µM (inactive). The GI50 [16] was 27.6 µM (inactive), the GI50 [17] was 31.6 µM (inactive) and the GI50 [18] was 55.7 µM (inactive). For the same molecule, the GI50 [19] was 56 µM (inactive), the GI50 [20] was 12.5 µM (inactive) and the GI50 [21] was 18.8 µM (inactive). The GI50 [22] was 37.8 µM (inactive), the GI50 [23] was 26.7 µM (inactive) and the GI50 [24] was 15.9 µM (inactive). The GI50 [25] was 89.9 µM (inactive), the GI50 [26] was 21 µM (inactive) and the GI50 [27] was 19.2 µM (inactive). The GI50 [28] was 20.1 µM (inactive), the GI50 [29] was 45.7 µM (inactive) and the GI50 [30] was 20.7 µM (inactive). For the same molecule, the GI50 [31] was 26.2 µM (inactive), the GI50 [32] was 53.7 µM (inactive) and the GI50 [33] was > 100 µM (inactive). The GI50 [34] was 46.9 µM (inactive), the GI50 [35] was 49 µM (inactive) and the GI50 [36] was 24.8 µM (inactive). The GI50 [37] was 55.8 µM (inactive), the GI50 [38] was > 100 µM (inactive) and the GI50 [39] was 28.5 µM (inactive). For the same molecule, the GI50 [40] was 53.1 µM (inactive), the GI50 [41] was 13.3 µM (inactive) and the GI50 [42] was 67.6 µM (inactive). The GI50 [43] was 34.3 µM (inactive), the GI50 [44] was 84.7 µM (inactive) and the GI50 [45] was 62.5 µM (inactive). For the same molecule, the GI50 [46] was > 100 µM (inactive), the GI50 [47] was 26 µM (inactive) and the GI50 [48] was 36.1 µM (inactive). For the same molecule, the GI50 [49] was > 100 µM (inactive), the GI50 [50] was 27.6 µM (inactive) and the GI50 [51] was > 100 µM (inactive). The GI50 [52] was 33.2 µM (inactive), the GI50 [53] was 30.2 µM (inactive) and the GI50 [54] was 18.3 µM (inactive). For the same molecule, the GI50 [55] was 32.5 µM (inactive).
